This test concerns the target T1, human histamine H4 receptor (Homo sapiens, UniProt Q9H3N8).
T1 construct: expressed in transfected cells; host or cells: SK-N-MC cells or COS7 cells, transiently transfected; membranes prepared
Kind of test: Binding Assay on Recombinant Human Histamine H4 Receptor (3H-histamine competition, membranes of transfected SK-N-MC or COS7 cells). Note: ligand 5 nM. The procedure: SK-N-MC cells or COS7 cells were transiently transfected with pH4R and grown in 150 cm^2 tissue culture dishes. Cells were washed with saline solution, scraped with a cell scraper and collected by centrifugation (1000 rpm, 5 min). Cell membranes were prepared by homogenization of the cell pellet in 20 mM Tris-HCl with a polytron tissue homogenizer for 10 sec at high speed. Homogenate was centrifuged at 1000 rpm for 5 min at 4° C. The supernatant was then collected and centrifuged at 20,000×g for 25 min at 4° C. The final pellet was resuspended in 50 mM Tris-HCl. […] Incubation occurred at room temperature for 45 min. Membranes were harvested by rapid filtration over Whatman GF/C filters and washed 4 times with ice-cold 50 mM Tris HCl. Filters were then dried, mixed with scintillant and counted for radioactivity.

Data on 14 compounds can be found in patent US7589087B2 (Janssen Pharmaceutica, N.V., priority 2006, dated 2009).

Structures can show the parent of a compound that is named as a salt.

T1 sequence (Q9H3N8 whole entry): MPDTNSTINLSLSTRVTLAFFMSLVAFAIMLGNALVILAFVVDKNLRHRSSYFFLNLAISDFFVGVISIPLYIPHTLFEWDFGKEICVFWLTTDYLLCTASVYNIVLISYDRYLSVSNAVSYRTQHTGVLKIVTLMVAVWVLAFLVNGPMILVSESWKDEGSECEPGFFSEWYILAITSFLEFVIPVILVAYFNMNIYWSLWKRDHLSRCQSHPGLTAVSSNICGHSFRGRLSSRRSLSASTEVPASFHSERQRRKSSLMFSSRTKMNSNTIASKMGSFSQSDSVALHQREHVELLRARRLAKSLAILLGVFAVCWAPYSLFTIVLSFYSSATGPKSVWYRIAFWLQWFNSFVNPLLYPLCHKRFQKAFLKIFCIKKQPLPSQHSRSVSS

Take `Cc1cc(C)c2nc(-c3ccc(N(C)CCCC4CCN(C)CC4)nc3)[nH]c2c1` [Example 1, [5-(4,6-Dimethyl-1H-benzoimidazol-2-yl)-pyridin-2-yl]-methyl-[3-(1-methyl-piperidin-4-yl)-propyl]-amine]: the Ki stood at 12 nM.

Take `Cc1c(F)ccc2[nH]c(-c3ccc(N(C)CCCC4CCN(C)CC4)nc3)nc12` [Example 2, [5-(5-Fluoro-4-methyl-1H-benzoimidazol-2-yl)-pyridin-2-yl]-methyl-[3-(1-methyl-piperidin-4-yl)-propyl]-amine]: the Ki came to 15 nM.

Take `CN1CCC(CCCNc2ccc(-c3nc4cc(Cl)ccc4[nH]3)cn2)CC1` [Example 3, [5-(5-Chloro-1H-benzoimidazol-2-yl)-pyridin-2-yl]-[3-(1-methyl-piperidin-4-yl)-propyl]-amine]: the Ki came to 6 nM.

Take `CN1CCC(CCCNc2ccc(-c3nc4cc(C(C)(C)C)ccc4[nH]3)cn2)CC1` [Example 4, [5-(5-tert-Butyl-1H-benzoimidazol-2-yl)-pyridin-2-yl]-[3-(1-methyl-piperidin-4-yl)-propyl]-amine]: the Ki was found to be 9 nM.

As to `Cc1c(F)ccc2[nH]c(-c3ccc(NCCCC4CCN(C)CC4)nc3)nc12` [Example 5, [5-(5-Fluoro-4-methyl-1H-benzoimidazol-2-yl)-pyridin-2-yl]-[3-(1-methyl-piperidin-4-yl)-propyl]-amine], the Ki was 33 nM.

Take `Cc1cc(Cl)cc2[nH]c(-c3ccc(NCCCC4CCN(C)CC4)nc3)nc12` [Example 6, [5-(6-Chloro-4-methyl-1H-benzoimidazol-2-yl)-pyridin-2-yl]-[3-(1-methyl-piperidin-4-yl)-propyl]-amine]: the inhibition constant (Ki) worked out at 16 nM.

For `COc1ccc2[nH]c(-c3ccc(NCCCC4CCN(C)CC4)nc3)nc2c1` [Example 7, [5-(5-Methoxy-1H-benzoimidazol-2-yl)-pyridin-2-yl]-[3-(1-methyl-piperidin-4-yl)-propyl]-amine], the Ki turned out to be 500 nM.

As to `COC(=O)c1ccc2[nH]c(-c3ccc(NCCCC4CCN(C)CC4)nc3)nc2c1` [Example 8, 2-{6-[3-(1-Methyl-piperidin-4-yl)-propylamino]-pyridin-3-yl}-1H-benzoimidazole-5-carboxylic acid methyl ester], the inhibition constant (Ki) was 1590 nM.

Consider `Cc1cc(Cl)cc2[nH]c(-c3ccc(NCCCN4CCN(C)CC4)nc3)nc12` [Example 9, [5-(6-Chloro-4-methyl-1H-benzoimidazol-2-yl)-pyridin-2-yl]-[3-(4-methyl-piperazin-1-yl)-propyl]-amine], for which the Ki worked out at 350 nM.

For `Cc1c(F)ccc2[nH]c(-c3ccc(NCCCN4CCN(C)CC4)nc3)nc12` [Example 10, [5-(5-Fluoro-4-methyl-1H-benzoimidazol-2-yl)-pyridin-2-yl]-[3-(4-methyl-piperazin-1-yl)-propyl]-amine], the Ki worked out at 930 nM.

With `Cc1cc(-c2nc3c(C)c(F)ccc3[nH]2)cnc1NCCCC1CCN(C)CC1` [Example 11, [5-(5-Fluoro-4-methyl-1H-benzoimidazol-2-yl)-3-methyl-pyridin-2-yl]-[3-(1-methyl-piperidin-4-yl)-propyl]-amine], the inhibition constant Ki came to 22 nM.

On to `Cc1cc(-c2nc3c(F)c(F)ccc3[nH]2)cnc1NCCCC1CCN(C)CC1` [Example 12, [5-(4,5-Difluoro-1H-benzoimidazol-2-yl)-3-methyl-pyridin-2-yl]-[3-(1-methyl-piperidin-4-yl)-propyl]-amine], for which the Ki came out at 78 nM.

Regarding `Cc1c(F)ccc2[nH]c(-c3ccc(N(CCCC4CCN(C)CC4)C(C)C)nc3)nc12` [Example 13, [5-(5-Fluoro-4-methyl-1H-benzoimidazol-2-yl)-pyridin-2-yl]-isopropyl-[3-(1-methyl-piperidin-4-yl)-propyl]-amine], the inhibition constant Ki was determined as 730 nM.

In the case of `Cc1cc(C)c2nc(-c3ccnc(N(C)CCCCC4CCN(C)CC4)c3)[nH]c2c1` [Example 14, [4-(4,6-Dimethyl-1H-benzoimidazol-2-yl)-pyridin-2-yl]-methyl-[4-(1-methyl-piperidin-4-yl)-butyl]-amine hydrochloride salt], the Ki is 40 nM.

Usually Ki stands for a dissociation constant, usually derived from enzyme kinetics or from competition with a known ligand.
